Assay results taken from US11571484B2, “Compositions that target tumor-associated macrophages and methods of use therefor” (Sanford Burnham Prebys Medical Discovery Institute, priority 2017, dated 2023).
Ends that are not written are not given here. FAM = 5(6)-carboxyfluorescein; Ahx = NCCCCCC(=O)O

Tested on: MEMs in MCF-7 tumors
Assay: Free peptide homing and immunofluorescence in the orthotopic MCF-7 breast tumor model
Assay type: in vivo, mouse
Settings: 30 nmoles i.v., 2 h
Protocol: A, Thirty nmoles of FAM-UNO were injected intravenously in mice bearing MCF-7 tumors, 21 days after orthotopic inoculation of 5×10^6 cells. […] All images were taken with the same imaging conditions. Scale bar: 100 μm and 50 μm (blow up). […] The tumor tissue from panel A was analyzed by immunofluorescence using rabbit anti-FAM (green), rat anti-HLA ABC (red) and counterstained with DAPI (blue). Scale bar: 50 μm. C, MCF-7 tumors are leaky. Tumor sections were immunostained for endogenous mouse IgG and counterstained with DAPI using the same staining and imaging conditions as in FIG. 17. Scale bar: 100 μm. Representative images from n=3 mice.
Mice were used for homing studies two weeks later.

Substance: FAM-UNO: FAM-labeled UNO peptide CSPGAKVRC (SEQ ID NO: 1); 5(6)-carboxyfluorescein with 6-aminohexanoic acid spacer at the N-terminus ({FAM-Ahx}-CSPGAKVRC; cysteine pairing not given here)
- accumulation in MEMs: selectively accumulated in MEMs
- targeting of tumor cells of human origin (HLA ABC+): did not target the tumor cells of human origin
